Data reported in US7205383B2, “Peptide ligands of leukocyte integrins” (Karyon-CTT Ltd., priority 2001, dated 2007).
pIC50: −log10 of the molar value. Bridge positions count the residues as written; N and C are the ends. Peptide text beside a SMILES is read from it.

How the values were obtained:
[1] = system: THP-1 cells on fibrinogen; assay: THP-1 cell adhesion to fibrinogen; type: cell-based
Procedure: Following a 60 min incubation the bound cells were determined by the phosphatase assay. The results are the mean ±SD of triplicate wells and were similar in two other experiments.
In FIG. 6(B), to activate integrins, THP-1 cells were stimulated both with phorbol ester (50 nM) and the RGD-4C and C(1–8;3–9) peptides (each 2.5 μM for 1 h. After washing the cells were allowed to bind to fibrinogen-coated wells in the presence of C(1–8;3–9) or RGD-4C or both peptides at the concentrations indicated. After a 30-min incubation the bound cells were determined. The results are the mean ±SD of triplicate wells and were similar in two other experiments. At some data points the SD values are too small to be seen.
(§1) Fibrinogen, fibronectin, von Wrlnebrand factor, type IV collagen, GST fusion proteins, Fc fusion proteins or synthetic peptides were coated on microtiter wells at a concentration of 2 μg in 50 μl TBS unless otherwise indicated. A recombinant von Willebrand factor and a capturing antibody to it kindly provided by Drs. J. J. Sixma and Ph. G. de Groot (University Medical Center Utrecht, the Netherlands) were also used. To prepare polymerized peptides, glutaraldehyde was added at a final concentration of 0.25%. […] The bound cells were determined by an assay measuring cellular phosphatase activity. […] The absorbance at 405 nm was read on a microplate reader. […]

[2] = system: αLβ2 integrin-mediated binding of Jurkat cells to ICAM-1-Fc; assay: Jurkat cell adhesion to ICAM-1-Fc; type: cell-based
Procedure: In FIG. 4(A), Jurkat cells were allowed to attach to immobilized ICAM-1-Fc in microtiter wells in the absence or presence of LLG-C4 peptides. Following a 45 min incubation, the unbound cells were removed by immersing the microtiter plate upside down on a decanter containing PBS, and the attached cells were stained with Crystal Violet.
as §1, with “0.25%. The wells were saturated with 5% BSA and then washed five times with PBS. Prior to adhesion assays, cells were treated with 50 nM 40-Phorbol 12,13-dibutyrate or with 200 μM P1 peptide (Kotovuori et al., 1999) in serum-free medium for 30 min at room temperature to activate the integrins.” for “0.25%.”

[3] = system: THP-1 cells (β2 integrins); details: soluble peptide
Procedure: In FIG. 2(A), phorbol ester-activated THP-1 cells were allowed to bind for 60 min to microtiter wells coated with LLG-C4-GST, GST, or albumin. EDTA was included at a 2.5 mM concentration. The bound cells were determined by the assay measuring cellular phosphatase activity. The data are the means ±SD from triplicate wells.
In FIG. 2(B), THP-1 cells were mixed with each antibody against the β1, β2, β3, αL, αM, or αX integrin subunit as indicated at a concentration of […]. An aliquot of cells was then transferred to wells coated with LLG-C4-GST and incubated for 60 min at 37° C. Following washing the bound cells were determined by the phosphatase assay. The results are the mean % adhesion ±SD of 2–4 independent experiments each done in triplicate wells.
In FIG. 3(A), TBP-1 cells were mixed in suspension with the peptide containing either the C(1–8;3–9) or C(1–9;3–8) disulfide. The final concentrations of the peptides are indicated. Cells were then incubated for 60 min at 37° C. in microtiter wells coated with LLG-C4-GST. After washing the wells, the bound cells were quantitated by the phosphatase assay. The results are the mean ±SD from triplicate wells.
In FIG. 3(B), THP-1 cell binding to LLG-C4-GST was examined in the presence of the C(1–8;3–9), CLLGC (SEQ ID NO: 4) or the CAAGC (SEQ ID NO: 5) peptide. The synthetic peptides were used at the concentrations indicated. Following a 60 min incubation the wells were washed and the bound cells were determined by the phosphatase assay.
(§2) Fibrinogen, fibronectin, von Wrlnebrand factor, type IV collagen, GST fusion proteins, Fc fusion proteins or synthetic peptides were coated on microtiter wells at a concentration of 2 μg in 50 μl TBS unless otherwise indicated. A recombinant von Willebrand factor and a capturing antibody to it kindly provided by Drs. J. J. Sixma and Ph. G. de Groot (University Medical Center Utrecht, the Netherlands) were also used. To prepare polymerized peptides, glutaraldehyde was added at a final concentration of 0.25%. The wells were saturated with 5% BSA and then washed five times with PBS. Prior to adhesion assays, cells were treated with 50 nM 40-Phorbol 12,13-dibutyrate or with 200 μM P1 peptide (Kotovuori et al., 1999) in serum-free medium for 30 min at room temperature to activate the integrins. Alternatively, cells were stimulated for 60 min at 37° C. with the phorbol ester (50 nM) and the C(1–8;3–9) and RGD-4C peptides each at a 2.5 μM concentration, after which the peptides were removed by washing with PBS/2.5 mM EDTA. Cells were incubated in the microtiter wells (100 000 cells per well) for 60 min at 37° C. in the absence or presence of competing peptides, antibodies or EDTA. Unbound cells were removed by gently washing with PBS and pressing the plate against paper towels. The bound cells were determined by an assay measuring cellular phosphatase activity. Briefly, 100 μl of 50 mM sodium acetate buffer, pH 5.0, containing 1% Triton X-100 and 6 mg/ml p-nitrophenyl phosphate was added per well and incubated for 1 h at 37° C. The reaction was stopped with 50 μl of 1 M NaOH. The absorbance at 405 nm was read on a microplate reader. Alternatively, the attached cells were stained with Crystal Violet essentially as described (Mould et al., 1995).

THP-1 cells [4] = assay: THP-1 cell adhesion on wells coated with synthetic peptides; type: cell-based
Procedure: In FIG. 2(C), the C(1–8;3–9) and C(1–9;3–8) peptides were coated on microtiter wells by incubating overnight at a concentration of 40 μg/ml in TBS in the absence or presence of glutaraldehyde. Free binding sites on plastic were then blocked with 5% BSA. THP-1 cells ([…]) were allowed to bind for 60 min at 37° C. […] The experiment was repeated twice.
as §1, with “0.25%. The wells were saturated with 5% BSA and then washed five times with PBS. Prior to adhesion assays, cells were treated with 50 nM 40-Phorbol 12,13-dibutyrate or with 200 μM P1 peptide (Kotovuori et al., 1999) in serum-free medium for 30 min at room temperature to activate the integrins.” for “0.25%.”

THP-1 cells [5] = assay: Transwell cell migration assay, fibrinogen-coated filters; type: cell-based; details: peptide 200 μM, 10% serum, 18 h
Procedure: In FIG. 6(C), Transwell filters were coated both on the upper and lower surface with fibrinogen, or left uncoated, and then saturated with BSA. TBP-1 cells (5×10^4 per filter) were plated on the upper surface of the filter in 10% serum-containing medium. The concentrations of C(1–8;3–9) and C(1–9;3–8) were 200 μM. Following a 18 hour-culture, the cells migrated underneath the filter were determined. The cells were fixed, stained, and then counted under a microscope.
The in vitro migration of THP-1 cells was studied in closely physiological conditions containing 10% serum to not interfere with adhesive properties of cells. Both the upper and lower surfaces of 8 μm pore size Transwell filters were coated with fibrinogen, LLG-C4-GST, or GST at a concentration of 40 μg/ml overnight at 4° C. Free binding sites were blocked by incubation with 5% BSA/TBS. THP-1 cells (5×10^4 in 100 μl) were plated on the upper compartment in 10% FCS-containing medium. The C(1–8;3–9) or C(1–9;3–8) peptide were included at a concentration of 200 μM. The lower compartment was filled with 750 μl of 10% FCS-containing medium. Following a culture for 18 h at 37° C. the filters were immersed in methanol for 15 min, in water for 10 s, and in 0.1% toluidine blue for 5 min. […] Cells were removed from the upper surface of the filter with a cotton swap, and cells migrated on the lower surface were counted microscopically. […]

[6] = system: T cells binding to Eahy926 endothelial cells (ICAM-1); assay: T cell binding to TNF-α-stimulated endothelial cell monolayer; type: cell-based; details: peptide 50 μM, 45 min
Procedure: In FIG. 4(B), T cells were allowed to bind to TNF-α-stimulated Eahy endothelial cell monolayers that were grown on microtiter wells. LLG-C4 or RGD-4C was included at a concentration of 50 μM. After a 45 min incubation, the unbound cells were removed by immersing the microtiter plate in a PBS solution, and the bound T cells were determined by the phosphatase assay. The data are the mean ±SD of triplicate wells.
To study T cell binding to an endothelial cell monolayer, Eahy926 endothelial cells were plated on microtiter plates at a density of 5×10^4 cells per well and grown for three days. To stimulate the production of ICAM-1, the cells were further grown for 16 h in the presence of TNF-α at a concentration of 10 ng/ml. T cells (1.5×10^5 per well) were allowed to bind to Eahy926 cells first for 30 min at 4° C., then 15 min at 37° C. The unbound T cells were removed by immersing the microtiter plate up side down in PBS. The bound cells were determined by the phosphatase assay.

[7] = system: THP-1 cells on type IV collagen; assay: THP-1 cell adhesion on type IV collagen; type: cell-based; details: phorbol ester-activated THP-1; read-out: IC50, inhibition of THP-1 adhesion on type IV collagen
Procedure: (§3) In FIG. 5(B), TRP-1 cells were allowed to bind to microtiter wells coated with von Willebrand factor, type IV collagen, or fibronectin. The C(1–8;3–9) peptide was included as a competitor in the concentrations described. The bound cells were determined by the phosphatase assay. The data are the mean ±SD of triplicate wells and were similar in four other experiments.
as §1, with “0.25%. The wells were saturated with 5% BSA and then washed five times with PBS. Prior to adhesion assays, cells were treated with 50 nM 40-Phorbol 12,13-dibutyrate or with 200 μM P1 peptide (Kotovuori et al., 1999) in serum-free medium for 30 min at room temperature to activate the integrins.” for “0.25%.”

[8] = system: THP-1 cells on von Willebrand factor; type: cell-based; details: phorbol ester-activated THP-1; read-out: IC50, inhibition of THP-1 cell binding to von Willebrand factor
Procedure: In FIG. 5(A), THP-1 cell binding to von Wirebrand factor was examined in the presence of antibodies against the β2 (7E4), αvβ3 (LM609) or αIIbβ3 (P2) integrins. Following a 60 min incubation in von Willebrand factor-coated wells, the bound cells were determined. The data are the mean ±SD of triplicate wells. The experiment was repeated three times.
as §3
as §2, with “Unbound cells were removed by gently washing with PBS and pressing the plate against paper towels.” left out, “Briefly, 100 μl of 50 mM sodium acetate buffer, pH 5.0, containing 1% Triton X-100 and 6 mg/ml p-nitrophenyl phosphate was added per well and incubated for 1 h at 37° C. The reaction was stopped with 50 μl of 1 M NaOH.” left out, “Alternatively, the attached cells were stained with Crystal Violet essentially as described (Mould et al., 1995).” left out

[9] = Water solubility of the peptides; type: physicochemical; details: compared with the C(1–9;3–8) peptide

For “CPCFLLGCC [C(1–9;3–8), LLG-C4 conformer with disulfide bridges C1–C9 and C3–C8]”, the “inhibition of THP-1 adhesion to fibrinogen” value ([1]; phorbol ester-stimulated THP-1, 60 min) was “no effect”, the “inhibition of Jurkat cell adhesion to ICAM-1-Fc” value ([2]; compared with C(1–8;3–9)) was “several fold less active and had hardly any effect” and the “fold less active than C(1–8;3–9), THP-1 adhesion on LLG-C4-GST” value [3] was 20 fold. The “THP-1 cell binding to coated peptide crosslinked with glutaraldehyde” value (THP-1 cells [4]; peptide coated at 40 μg/ml in presence of glutaraldehyde) was “gave no cell binding”, the “THP-1 cell binding to coated peptide” value (THP-1 cells [4]; peptide coated at 40 μg/ml, without glutaraldehyde) was “failed to bind” and the “inhibition of THP-1 cell migration through fibrinogen-coated filter” value (THP-1 cells [5]) was “inhibited only partially”.

For “ACDCRGDCFCG [RGD-4C, RGD-containing peptide, ligand of several β1 and β3 integrins, reference compound]”, the “inhibition of THP-1 adhesion on fibrinogen after peptide pre-stimulation” value ([1]; cells pre-stimulated with phorbol ester (50 nM) and RGD-4C and C(1–8;3–9) each 2.5 μM, 30-min incubation) was “more effectively than C(1–8;3–9)” and the “effect on T cell binding to TNF-α-stimulated endothelial cells” value [6] was “no effect”.

In the case of CC(C)C[C@@H]1NC(=O)[C@H](CC(C)C)NC(=O)[C@H](Cc2ccccc2)NC(=O)[C@@H]2CSSC[C@@H](C(=O)O)NC(=O)[C@H](CSSC[C@H](N)C(=O)N3CCC[C@H]3C(=O)N2)NC(=O)CNC1=O [C(1–8;3–9), CPCFLLGCC] (H-CPCFLLGCC-OH; disulfide 1-8, 3-9; N-terminus and C-terminus assumed), the pIC50 ([2]; ICAM-1-Fc directly coated or captured via protein A, read-out: IC50, inhibition of Jurkat cell adhesion to ICAM-1-Fc) was about 4.10, the pIC50 [7] was about 3.70 and the pIC50 [8] was about 4.70. The water solubility [9] was “poorer water solubility” and the pIC50 ([3]; read-out: IC50, inhibition of THP-1 cell adhesion on LLG-C4-GST, 60 min at 37° C.) was 4.70.
